{"source": "ChEMBL document CHEMBL5518174", "about": "(Eur J Med Chem, 2024)", "key": {"[1]": {"assay": "Upregulation of acetylated H3 protein expression in human NCI-H1975 cells assessed as fold change at 0.05 uM incubated for 24 hrs by immunoblotting analysis (reference value: 1)", "assay_type": "functional"}, "Histone deacetylase 9": {"target": "Histone deacetylase 9 (Homo sapiens, UniProt Q9UKV0)", "sequence (Q9UKV0 whole entry)": "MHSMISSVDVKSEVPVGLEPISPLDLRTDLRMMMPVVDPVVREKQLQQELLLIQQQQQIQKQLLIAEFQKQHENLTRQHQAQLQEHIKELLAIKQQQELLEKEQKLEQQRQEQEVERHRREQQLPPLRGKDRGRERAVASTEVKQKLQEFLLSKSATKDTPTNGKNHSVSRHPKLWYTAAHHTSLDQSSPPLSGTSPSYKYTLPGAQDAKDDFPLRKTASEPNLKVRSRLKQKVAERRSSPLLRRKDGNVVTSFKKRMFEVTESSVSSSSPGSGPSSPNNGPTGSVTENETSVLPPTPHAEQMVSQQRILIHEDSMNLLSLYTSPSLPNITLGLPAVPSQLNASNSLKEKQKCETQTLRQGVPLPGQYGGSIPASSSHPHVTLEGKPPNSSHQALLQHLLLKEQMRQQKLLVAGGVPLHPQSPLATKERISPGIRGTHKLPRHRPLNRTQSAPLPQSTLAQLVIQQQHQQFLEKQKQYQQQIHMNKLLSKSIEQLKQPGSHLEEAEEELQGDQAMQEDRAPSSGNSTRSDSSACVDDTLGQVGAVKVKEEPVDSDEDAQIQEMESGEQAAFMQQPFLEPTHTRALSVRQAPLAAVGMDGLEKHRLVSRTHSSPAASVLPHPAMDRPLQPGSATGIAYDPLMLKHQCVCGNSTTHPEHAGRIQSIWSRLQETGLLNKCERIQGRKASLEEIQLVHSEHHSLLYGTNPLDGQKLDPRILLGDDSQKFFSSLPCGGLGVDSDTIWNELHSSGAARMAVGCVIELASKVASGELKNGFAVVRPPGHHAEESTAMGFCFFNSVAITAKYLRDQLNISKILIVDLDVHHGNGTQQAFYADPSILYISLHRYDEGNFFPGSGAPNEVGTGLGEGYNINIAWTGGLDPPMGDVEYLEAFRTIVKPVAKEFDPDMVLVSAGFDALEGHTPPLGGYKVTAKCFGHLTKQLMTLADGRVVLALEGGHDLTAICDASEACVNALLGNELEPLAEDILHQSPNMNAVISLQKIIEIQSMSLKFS", "assay": "Inhibition of recombinant human HDAC9 using acetylated luminogenic substrate incubated for 10 mins by ultra-glo recombinant firefly luciferase based luminescence assay"}, "Histone deacetylase 11": {"target": "T1, Histone deacetylase 11 (Homo sapiens, UniProt Q96DB2)", "T1 sequence (Q96DB2 whole entry)": "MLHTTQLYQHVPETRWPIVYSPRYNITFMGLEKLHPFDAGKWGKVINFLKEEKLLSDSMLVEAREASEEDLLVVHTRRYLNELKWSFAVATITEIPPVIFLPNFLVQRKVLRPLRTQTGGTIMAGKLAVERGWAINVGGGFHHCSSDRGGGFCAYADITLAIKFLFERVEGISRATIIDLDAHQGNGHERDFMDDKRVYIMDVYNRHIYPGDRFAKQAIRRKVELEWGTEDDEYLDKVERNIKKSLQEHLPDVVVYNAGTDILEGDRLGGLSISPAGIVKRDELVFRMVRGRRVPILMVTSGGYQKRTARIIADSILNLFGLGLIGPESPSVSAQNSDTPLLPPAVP", "assay": "Inhibition of recombinant human HDAC11 using acetylated luminogenic substrate incubated for 10 mins by ultra-glo recombinant firefly luciferase based luminescence assay"}, "[2]": {"assay": "Downregulation of HDAC1 protein expression in human MDA-MB-231 cells assessed as fold change at 0.05 uM incubated for 24 hrs by immunoblotting analysis (reference value: 1)", "assay_type": "functional"}, "[3]": {"assay": "Downregulation of HDAC1 protein expression in human MDA-MB-231 cells assessed as fold change at 0.1 uM incubated for 24 hrs by immunoblotting analysis (reference value: 1)", "assay_type": "functional"}, "[4]": {"assay": "Downregulation of HDAC3 protein expression in human NCI-H1975 cells assessed as fold change at 0.05 uM incubated for 24 hrs by immunoblotting analysis (reference value: 1)", "assay_type": "functional"}, "[5]": {"assay": "Downregulation of HDAC3 protein expression in human NCI-H1975 cells assessed as fold change at 0.1 uM incubated for 24 hrs by immunoblotting analysis (reference value: 1)", "assay_type": "functional"}, "[6]": {"assay": "Downregulation of HDAC3 protein expression in human MDA-MB-231 cells assessed as fold change at 0.1 uM incubated for 24 hrs by immunoblotting analysis (reference value: 1)", "assay_type": "functional"}, "[7]": {"assay": "Downregulation of HDAC8 protein expression in human NCI-H1975 cells assessed as fold change at 0.05 uM incubated for 24 hrs by immunoblotting analysis (reference value: 1)", "assay_type": "functional"}, "[8]": {"assay": "Effect on HDAC8 protein expression in human MDA-MB-231 cells assessed as fold change at 0.05 uM incubated for 24 hrs by immunoblotting analysis (reference value: 1)", "assay_type": "functional"}, "[9]": {"assay": "Effect on HDAC8 protein expression in human MDA-MB-231 cells assessed as fold change at 0.1 uM incubated for 24 hrs by immunoblotting analysis (reference value: 1)", "assay_type": "functional"}, "[10]": {"assay": "Effect on HDAC10 protein expression in human NCI-H1975 cells assessed as fold change at 0.05 uM incubated for 24 hrs by immunoblotting analysis (reference value: 1)", "assay_type": "functional"}, "[11]": {"assay": "Downregulation of HDAC7 protein expression in human NCI-H1975 cells assessed as fold change at 0.1 uM incubated for 24 hrs by immunoblotting analysis (reference value: 1)", "assay_type": "functional"}, "[12]": {"assay": "Downregulation of HDAC7 protein expression in human MDA-MB-231 cells assessed as fold change at 0.05 uM incubated for 24 hrs by immunoblotting analysis (reference value: 1)", "assay_type": "functional"}, "[13]": {"assay": "Downregulation of HDAC9 protein expression in human NCI-H1975 cells assessed as fold change at 0.1 uM incubated for 24 hrs by immunoblotting analysis (reference value: 1)", "assay_type": "functional"}, "[14]": {"assay": "Downregulation of HDAC9 protein expression in human MDA-MB-231 cells assessed as fold change at 0.1 uM incubated for 24 hrs by immunoblotting analysis (reference value: 1)", "assay_type": "functional"}, "[15]": {"assay": "Downregulation of HDAC6 protein expression in human NCI-H1975 cells assessed as fold change at 0.1 uM incubated for 24 hrs by immunoblotting analysis (reference value: 1)", "assay_type": "functional"}, "[16]": {"assay": "Downregulation of HDAC10 protein expression in human MDA-MB-231 cells assessed as fold change at 0.1 uM incubated for 24 hrs by immunoblotting analysis (reference value: 1)", "assay_type": "functional"}, "[17]": {"assay": "Effect on HDAC11 protein expression in human NCI-H1975 cells assessed as fold change at 0.1 uM incubated for 24 hrs by immunoblotting analysis (reference value: 1)", "assay_type": "functional"}, "NCI-H1975": {"system": "NCI-H1975", "assay": "Antitumor activity against human NCI-H1975 cells xenografted in athymic nude BALB/c mouse assessed as reduction in tumor growth at 6 mg/kg, ip administered 5 times a week for 3 weeks by vernier caliper method", "assay_type": "functional, organism-based"}, "[18]": {"assay": "Toxicity in athymic nude BALB/c mouse xenografted with human NCI-H1975 cells assessed as effect on creatinine level at 6 mg/kg, ip administered 5 times a week for 3 weeks and measured on day 22", "assay_type": "organism-based", "details": "in vivo, 528 h, time 22 day"}, "MDA-MB-231 [19]": {"system": "MDA-MB-231", "assay": "Antitumor activity against human MDA-MB-231 cells xenografted in athymic nude BALB/c mouse assessed as reduction in tumor growth at 3 mg/kg, ip administered 5 times a week for 7 weeks by vernier caliper method", "assay_type": "functional, organism-based"}, "MDA-MB-231 [20]": {"system": "MDA-MB-231", "assay": "Antitumor activity against human MDA-MB-231 cells xenografted in athymic nude BALB/c mouse assessed as average tumor size at 3 mg/kg, ip administered 5 times a week for 7 weeks and measured on day 47 (reference value: 15.4 +/- 5.3 mm3)", "assay_type": "functional", "details": "time 47 day"}, "[21]": {"assay": "Toxicity in athymic nude BALB/c mouse xenografted with human MDA-MB-231 cells assessed as effect on ALT level in serum at 3 mg/kg, ip administered 5 times a week for 7 weeks", "assay_type": "organism-based", "details": "in vivo, 1176 h"}}, "note": "Calls of active or inactive are those of the source. The calls are words filed in the database; no cut-off is given here."}
{"smiles": "CCOc1ccc(-c2nc(C(=O)NCc3ccc(C(=O)NO)cc3)c3[nH]c(=O)n(-c4cccnc4OC)c3n2)cn1", "values": [{"measurement": "fold change (FC)", "setting": "[1]", "value": 1.77}, {"measurement": "IC50", "setting": "Histone deacetylase 9", "value": 19.7, "unit": "nM"}, {"measurement": "IC50", "setting": "Histone deacetylase 11", "value": 49.9, "unit": "nM"}, {"measurement": "fold change (FC)", "setting": "[2]", "value": 0.84}, {"measurement": "fold change (FC)", "setting": "[3]", "value": 0.88}, {"measurement": "fold change (FC)", "setting": "[4]", "value": 0.82}, {"measurement": "fold change (FC)", "setting": "[5]", "value": 0.37}, {"measurement": "fold change (FC)", "setting": "[6]", "value": 0.65}, {"measurement": "fold change (FC)", "setting": "[7]", "value": 0.85}, {"measurement": "fold change (FC)", "setting": "[8]", "value": 1.7}, {"measurement": "fold change (FC)", "setting": "[9]", "value": 1.08}, {"measurement": "fold change (FC)", "setting": "[10]", "value": 1.09}, {"measurement": "fold change (FC)", "setting": "[11]", "value": 0.79}, {"measurement": "fold change (FC)", "setting": "[12]", "value": 0.77}, {"measurement": "fold change (FC)", "setting": "[13]", "value": 0.33}, {"measurement": "fold change (FC)", "setting": "[14]", "value": 0.94}, {"measurement": "fold change (FC)", "setting": "[15]", "value": 0.41}, {"measurement": "fold change (FC)", "setting": "[16]", "value": 0.88}, {"measurement": "fold change (FC)", "setting": "[17]", "value": 1.85}, {"measurement": "Activity", "setting": "NCI-H1975", "value": "Active"}, {"measurement": "Activity", "setting": "[18]", "value": "Non-Toxic"}, {"measurement": "Activity", "setting": "MDA-MB-231 [19]", "value": "Active"}, {"measurement": "Activity", "setting": "MDA-MB-231 [20]", "value": 1.7, "unit": "mm3"}, {"measurement": "Activity", "setting": "[21]", "value": "Non-Toxic"}]}
